Legend:
Assay type in all cases: in vivo
[1] = test system: Ipomoea hederacea (IPOHE); experiment: Pre-emergence Test (glasshouse, percentage damage to the plant); settings: 1000 g/ha unless otherwise stated, five-point scale
[2] = test system: Echinochloa crus-galli (ECHCG); experiment: as above; settings: 1000 g/ha unless otherwise stated, five-point scale
[3] = test system: Abutilon theophrasti (ABUTH); experiment: as above; settings: 1000 g/ha unless otherwise stated, five-point scale
[4] = test system: Amaranthus retoflexus (AMARE); experiment: as above; settings: 1000 g/ha unless otherwise stated, five-point scale
[5] = test system: Setaria faberi (SETFA); experiment: as above; settings: 1000 g/ha unless otherwise stated, five-point scale
[6] = test system: Zea mays (ZEAMX); experiment: Post-emergence Test (glasshouse, percentage damage to the plant); settings: post-emergence spray, 1000 g/ha unless otherwise stated, evaluated after 13 days
Outline: (§1)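 Seeds sown in pots in glasshouse (24/16 °C day/night, 14 h light, 65% humidity), then sprayed with compound at 1000 g/ha unless stated, from acetone/water 50:50 with 0.5% Tween 20. Damage assessed 13 days later on five-point scale (1=0–20% to 5=81–100%).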

[7] = test system: Echinochloa crus-galli (ECHCG); experiment: as above; settings: post-emergence spray, 1000 g/ha unless otherwise stated, evaluated after 13 days
Outline: (§2)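 Rate 1000 g/ha unless stated otherwise. Vehicle: acetone/water 50:50 with 0.5% Tween 20, diluted into aqueous spray. Timing: spray after sowing, read 13 days later. Score: 5=81-100%, 4=61-80%, 3=41-60%, 2=21-40%, 1=0-20% damage.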

[8] = test system: Ipomoea hederacea (IPOHE); experiment: as above; settings: post-emergence spray, 1000 g/ha unless otherwise stated, evaluated after 13 days
Outline: as §1

[9] = test system: Abutilon theophrasti (ABUTH); experiment: as above; settings: post-emergence spray, 1000 g/ha unless otherwise stated, evaluated after 13 days
Outline: as §2

[10] = test system: Amaranthus retoflexus (AMARE); experiment: as above; settings: post-emergence spray, 1000 g/ha unless otherwise stated, evaluated after 13 days
Outline: as §2

[11] = test system: Setaria faberi (SETFA); experiment: as above; settings: post-emergence spray, 1000 g/ha unless otherwise stated, evaluated after 13 days
Outline: as §1

[12] = test system: Zea mays (ZEAMX); experiment: Pre-emergence Test (glasshouse, percentage damage to the plant); settings: 1000 g/ha unless otherwise stated, five-point scale

SMILES: CCn1c(C)c(-c2ccc(SC)cc2)c(=O)c(C(=O)O)c1-c1ccc(Cl)c(Cl)c1 [Compound 93, 2-(3,4-dichlorophenyl)-1-ethyl-6-methyl-5-(4-methylsulfanylphenyl)-4-oxo-pyridine-3-carboxylic acid]
- percentage damage to the plant, IPOHE [1]: 1 (1=0-20%)
- percentage damage to the plant, ECHCG [2]: 3 (3=41-60%)
- percentage damage to the plant, ABUTH [3]: 1 (1=0-20%)
- percentage damage to the plant, AMARE [4]: 1 (1=0-20%)
- percentage damage to the plant, SETFA [5]: 4 (4=61-80%)
- Post-emergence Test ZEAMX, percentage damage to the plant (five-point scale) [6]: 1 (1=0-20%)
- Post-emergence Test ECHCG, percentage damage to the plant (five-point scale) [7]: 3 (3=41-60%)
- Post-emergence Test IPOHE, percentage damage to the plant (five-point scale) [8]: 2 (2=21-40%)
- Post-emergence Test ABUTH, percentage damage to the plant (five-point scale) [9]: 2 (2=21-40%)
- Post-emergence Test AMARE, percentage damage to the plant (five-point scale) [10]: 1 (1=0-20%)
- Post-emergence Test SETFA, percentage damage to the plant (five-point scale) [11]: 2 (2=21-40%)
- percentage damage to the plant, ZEAMX [12]: 1 (1=0-20%)

SMILES: CCn1c(C)c(-c2ccc(F)c(C#N)c2)c(=O)c(C(=O)O)c1-c1ccc(Cl)c(Cl)c1 [Compound 91, 5-(3-cyano-4-fluoro-phenyl)-2-(3,4-dichlorophenyl)-1-ethyl-6-methyl-4-oxo-pyridine-3-carboxylic acid]
- percentage damage to the plant, IPOHE [1]: 3 (3=41-60%)
- percentage damage to the plant, ECHCG [2]: 4 (4=61-80%)
- percentage damage to the plant, ABUTH [3]: 2 (2=21-40%)
- percentage damage to the plant, AMARE [4]: 2 (2=21-40%)
- percentage damage to the plant, SETFA [5]: 4 (4=61-80%)
- Post-emergence Test ZEAMX, percentage damage to the plant (five-point scale) [6]: 2 (2=21-40%)
- Post-emergence Test ECHCG, percentage damage to the plant (five-point scale) [7]: 4 (4=61-80%)
- Post-emergence Test IPOHE, percentage damage to the plant (five-point scale) [8]: 3 (3=41-60%)
- Post-emergence Test ABUTH, percentage damage to the plant (five-point scale) [9]: 3 (3=41-60%)
- Post-emergence Test AMARE, percentage damage to the plant (five-point scale) [10]: 3 (3=41-60%)
- Post-emergence Test SETFA, percentage damage to the plant (five-point scale) [11]: 4 (4=61-80%)
- percentage damage to the plant, ZEAMX [12]: 1 (1=0-20%)

SMILES: CCn1c(C)c(-c2cccc(Cl)c2)c(=O)c(C(=O)O)c1-c1ccnc(Cl)c1 [Compound 144, 5-(3-chlorophenyl)-2-(2-chloro-4-pyridyl)-1-ethyl-6-methyl-4-oxo-pyridine-3-carboxylic acid]
- percentage damage to the plant, IPOHE [1]: 2 (2=21-40%)
- percentage damage to the plant, ECHCG [2]: 4 (4=61-80%)
- percentage damage to the plant, ABUTH [3]: 1 (1=0-20%)
- percentage damage to the plant, AMARE [4]: 1 (1=0-20%)
- percentage damage to the plant, SETFA [5]: 4 (4=61-80%)
- Post-emergence Test ZEAMX, percentage damage to the plant (five-point scale) [6]: 2 (2=21-40%)
- Post-emergence Test ECHCG, percentage damage to the plant (five-point scale) [7]: 2 (2=21-40%)
- Post-emergence Test IPOHE, percentage damage to the plant (five-point scale) [8]: 2 (2=21-40%)
- Post-emergence Test ABUTH, percentage damage to the plant (five-point scale) [9]: 2 (2=21-40%)
- Post-emergence Test AMARE, percentage damage to the plant (five-point scale) [10]: 2 (2=21-40%)
- Post-emergence Test SETFA, percentage damage to the plant (five-point scale) [11]: 3 (3=41-60%)
- percentage damage to the plant, ZEAMX [12]: 2 (2=21-40%)

SMILES: CCn1c(C)c(-c2ccc(C#N)cc2)c(=O)c(C(=O)O)c1-c1ccc(Cl)c(Cl)n1 [Compound 146, 5-(4-cyanophenyl)-2-(5,6-dichloro-2-pyridyl)-1-ethyl-6-methyl-4-oxo-oyridine-3-carboxylic acid]
- percentage damage to the plant, IPOHE [1]: 0
- percentage damage to the plant, ECHCG [2]: 4 (4=61-80%)
- percentage damage to the plant, ABUTH [3]: 1 (1=0-20%)
- percentage damage to the plant, AMARE [4]: 1 (1=0-20%)
- percentage damage to the plant, SETFA [5]: 4 (4=61-80%)
- Post-emergence Test ZEAMX, percentage damage to the plant (five-point scale) [6]: 3 (3=41-60%)
- Post-emergence Test ECHCG, percentage damage to the plant (five-point scale) [7]: 4 (4=61-80%)
- Post-emergence Test IPOHE, percentage damage to the plant (five-point scale) [8]: 4 (4=61-80%)
- Post-emergence Test ABUTH, percentage damage to the plant (five-point scale) [9]: 3 (3=41-60%)
- Post-emergence Test AMARE, percentage damage to the plant (five-point scale) [10]: 2 (2=21-40%)
- Post-emergence Test SETFA, percentage damage to the plant (five-point scale) [11]: 4 (4=61-80%)
- percentage damage to the plant, ZEAMX [12]: 1 (1=0-20%)

SMILES: CCOc1cc(-c2c(C)n(CC)c(-c3ccc(Cl)c(Cl)c3)c(C(=O)O)c2=O)cc(C(F)(F)F)c1 [Compound 88, 2-(3,4-dichlorophenyl)-5-[3-ethoxy-5-(trifluoromethyl)phenyl]-1-ethyl-6-methyl-4-oxo-pyridine-3-carboxylic acid]
- percentage damage to the plant, IPOHE [1]: 1 (1=0-20%)
- percentage damage to the plant, ECHCG [2]: 1 (1=0-20%)
- percentage damage to the plant, ABUTH [3]: 1 (1=0-20%)
- percentage damage to the plant, AMARE [4]: 1 (1=0-20%)
- percentage damage to the plant, SETFA [5]: 4 (4=61-80%)
- Post-emergence Test ZEAMX, percentage damage to the plant (five-point scale) [6]: 1 (1=0-20%)
- Post-emergence Test ECHCG, percentage damage to the plant (five-point scale) [7]: 2 (2=21-40%)
- Post-emergence Test IPOHE, percentage damage to the plant (five-point scale) [8]: 1 (1=0-20%)
- Post-emergence Test ABUTH, percentage damage to the plant (five-point scale) [9]: 2 (2=21-40%)
- Post-emergence Test AMARE, percentage damage to the plant (five-point scale) [10]: 2 (2=21-40%)
- Post-emergence Test SETFA, percentage damage to the plant (five-point scale) [11]: 2 (2=21-40%)
- percentage damage to the plant, ZEAMX [12]: 1 (1=0-20%)

SMILES: CCn1c(C)c(-c2ccc(OC(F)(F)F)cc2)c(=O)c(C(=O)O)c1-c1ccc(F)cc1F [Compound 136, 2-(2,4-difluorophenyl)-1-ethyl-6-methyl-4-oxo-5-[4-(trifluoromethoxy)phenyl]pyridine-3-carboxylic acid]
- percentage damage to the plant, IPOHE [1]: 2 (2=21-40%)
- percentage damage to the plant, ECHCG [2]: 3 (3=41-60%)
- percentage damage to the plant, ABUTH [3]: 3 (3=41-60%)
- percentage damage to the plant, AMARE [4]: 2 (2=21-40%)
- percentage damage to the plant, SETFA [5]: 5 (5=81-100%)
- Post-emergence Test ZEAMX, percentage damage to the plant (five-point scale) [6]: 1 (1=0-20%)
- Post-emergence Test ECHCG, percentage damage to the plant (five-point scale) [7]: 3 (3=41-60%)
- Post-emergence Test IPOHE, percentage damage to the plant (five-point scale) [8]: 2 (2=21-40%)
- Post-emergence Test ABUTH, percentage damage to the plant (five-point scale) [9]: 3 (3=41-60%)
- Post-emergence Test AMARE, percentage damage to the plant (five-point scale) [10]: 3 (3=41-60%)
- Post-emergence Test SETFA, percentage damage to the plant (five-point scale) [11]: 4 (4=61-80%)
- percentage damage to the plant, ZEAMX [12]: 1 (1=0-20%)

SMILES: CCn1c(C)c(-c2cc(F)cc(F)c2)c(=O)c(C(=O)O)c1-c1ccc(Cl)c(Cl)c1 [Compound 79, 2-(3,4-dichlorophenyl)-5-(3,5-difluorophenyl)-1-ethyl-6-methyl-4-oxo-pyridine-3-carboxylic acid]
- percentage damage to the plant, IPOHE [1]: 2 (2=21-40%)
- percentage damage to the plant, ECHCG [2]: 1 (1=0-20%)
- percentage damage to the plant, ABUTH [3]: 3 (3=41-60%)
- percentage damage to the plant, AMARE [4]: 3 (3=41-60%)
- percentage damage to the plant, SETFA [5]: 5 (5=81-100%)
- Post-emergence Test ZEAMX, percentage damage to the plant (five-point scale) [6]: 1 (1=0-20%)
- Post-emergence Test ECHCG, percentage damage to the plant (five-point scale) [7]: 1 (1=0-20%)
- Post-emergence Test IPOHE, percentage damage to the plant (five-point scale) [8]: 2 (2=21-40%)
- Post-emergence Test ABUTH, percentage damage to the plant (five-point scale) [9]: 2 (2=21-40%)
- Post-emergence Test AMARE, percentage damage to the plant (five-point scale) [10]: 1 (1=0-20%)
- Post-emergence Test SETFA, percentage damage to the plant (five-point scale) [11]: 2 (2=21-40%)
- percentage damage to the plant, ZEAMX [12]: 2 (2=21-40%)

SMILES: CCn1c(C)c(-c2ccccc2)c(=O)c(C(=O)O)c1-c1ccc(F)cc1F [Compound 135, 2-(2,4-difluorophenyl)-1-ethyl-6-methyl-4-oxo-5-phenyl-pyridine-3-carboxylic acid]
- percentage damage to the plant, IPOHE [1]: 3 (3=41-60%)
- percentage damage to the plant, ECHCG [2]: 2 (2=21-40%)
- percentage damage to the plant, ABUTH [3]: 3 (3=41-60%)
- percentage damage to the plant, AMARE [4]: 1 (1=0-20%)
- percentage damage to the plant, SETFA [5]: 5 (5=81-100%)
- Post-emergence Test ZEAMX, percentage damage to the plant (five-point scale) [6]: 0
- Post-emergence Test ECHCG, percentage damage to the plant (five-point scale) [7]: 0
- Post-emergence Test IPOHE, percentage damage to the plant (five-point scale) [8]: 1 (1=0-20%)
- Post-emergence Test ABUTH, percentage damage to the plant (five-point scale) [9]: 1 (1=0-20%)
- Post-emergence Test AMARE, percentage damage to the plant (five-point scale) [10]: 2 (2=21-40%)
- Post-emergence Test SETFA, percentage damage to the plant (five-point scale) [11]: 0
- percentage damage to the plant, ZEAMX [12]: 0

SMILES: CCn1c(C)c(-c2cc(C)cc(C(F)(F)F)c2)c(=O)c(C(=O)O)c1-c1ccc(Cl)c(Cl)c1 [Compound 67, 2-(3,4-dichlorophenyl)-1-ethyl-6-methyl-5-[3-methyl-5-(trifluoromethyl)phenyl]-4-oxo-pyridine-3-carboxylic acid]
- percentage damage to the plant, IPOHE [1]: 1 (1=0-20%)
- percentage damage to the plant, ECHCG [2]: 1 (1=0-20%)
- percentage damage to the plant, ABUTH [3]: 1 (1=0-20%)
- percentage damage to the plant, AMARE [4]: 1 (1=0-20%)
- percentage damage to the plant, SETFA [5]: 1 (1=0-20%)
- Post-emergence Test ZEAMX, percentage damage to the plant (five-point scale) [6]: 1 (1=0-20%)
- Post-emergence Test ECHCG, percentage damage to the plant (five-point scale) [7]: 1 (1=0-20%)
- Post-emergence Test IPOHE, percentage damage to the plant (five-point scale) [8]: 1 (1=0-20%)
- Post-emergence Test ABUTH, percentage damage to the plant (five-point scale) [9]: 2 (2=21-40%)
- Post-emergence Test AMARE, percentage damage to the plant (five-point scale) [10]: 1 (1=0-20%)
- Post-emergence Test SETFA, percentage damage to the plant (five-point scale) [11]: 1 (1=0-20%)
- percentage damage to the plant, ZEAMX [12]: 1 (1=0-20%)

Source: patent publication US12660819B2, “Herbicidal derivatives” (SYNGENTA CROP PROTECTION AG, priority 2020, dated 2026)
